Key:
[1] = test system: Jurkat; assay: Potency index, ratio of etoposide IC50 to compound IC50 for antiproliferative activity against human Jurkat T cells; format: functional
[2] = test system: Jurkat; assay: Potency index, ratio of 17-AAG IC50 to compound IC50 for antiproliferative activity against human Jurkat T cells; format: functional
[3] = molecular target: Heat shock protein HSP90 (Homo sapiens, UniProt P07900+P08238); assay: Binding affinity to HSP90 (unknown origin) by SPR analysis; format: protein assay
[4] = test system: Jurkat; assay: Antiproliferative activity against human Jurkat T cells after 48 hrs; format: functional, cell-based
[5] = test system: Jurkat; assay: Potency index, ratio of novobiocin IC50 to compound IC50 for antiproliferative activity against human Jurkat T cells; format: functional
[6] = test system: MCF7; assay: Antiproliferative activity against human MCF7 cells; format: functional, cell-based
[7] = test system: SK-BR-3; assay: Antiproliferative activity against human SKBR3 cells; format: functional, cell-based
[8] = molecular target: Chaperone protein dnaK (Escherichia coli) (UniProt C3TRK2); assay: Inhibition of Escherichia coli DNAK ATPase activity after 3 hrs relative to control; settings: concentration not given here
Chaperone protein dnaK (Escherichia coli), sequence (C3TRK2 1-638): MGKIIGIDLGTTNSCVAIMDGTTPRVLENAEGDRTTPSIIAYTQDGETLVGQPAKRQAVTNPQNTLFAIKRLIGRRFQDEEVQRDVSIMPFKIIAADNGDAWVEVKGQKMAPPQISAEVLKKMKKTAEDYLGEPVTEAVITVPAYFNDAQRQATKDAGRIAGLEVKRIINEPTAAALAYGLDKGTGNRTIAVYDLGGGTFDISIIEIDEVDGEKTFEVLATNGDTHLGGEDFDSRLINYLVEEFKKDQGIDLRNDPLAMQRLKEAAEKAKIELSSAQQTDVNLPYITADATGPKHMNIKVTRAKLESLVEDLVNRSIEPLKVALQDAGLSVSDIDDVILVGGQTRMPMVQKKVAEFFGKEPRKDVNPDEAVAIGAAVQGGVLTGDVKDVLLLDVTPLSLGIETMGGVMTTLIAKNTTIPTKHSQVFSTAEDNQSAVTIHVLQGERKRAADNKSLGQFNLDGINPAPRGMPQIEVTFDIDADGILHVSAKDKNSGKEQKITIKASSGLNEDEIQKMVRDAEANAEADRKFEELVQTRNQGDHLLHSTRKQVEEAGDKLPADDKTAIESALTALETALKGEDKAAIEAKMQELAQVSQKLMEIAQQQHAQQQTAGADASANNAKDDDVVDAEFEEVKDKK

With `COc1cccc(-c2cc(C(=O)Nc3cc4cc(OC)c(OC(C)=O)c(C)c4oc3=O)ccc2OC)c1` the “Ratio IC50” value [1] was 3, the “Ratio IC50” value [2] was 10 and the Kd [3] was 1000 to 2000 nM. For the same compound, the IC50 [4] was 416 nM and the “Ratio IC50” value [5] was 600.
In the case of `CO[C@@H]1[C@@H](OC(=O)c2ccc(C)[nH]2)[C@@H](O)[C@H](Oc2ccc3c(O)c(NC(=O)c4c[nH]c(C(=O)Nc5c(O)c6ccc(O[C@@H]7OC(C)(C)[C@H](OC)[C@@H](OC(=O)c8ccc(C)[nH]8)[C@H]7O)c(C)c6oc5=O)c4C)c(=O)oc3c2C)OC1(C)C`, the IC50 [6] is reported as 2 µM and the IC50 [7] is reported as 2 µM.
`O=c1c(O)c(-c2cc(O)c(O)c(O)c2)oc2cc(O)cc(O)c12` showed an inhibition [8] of 75%.
For `O=C(O[C@@H]1Cc2c(O)cc(O)cc2O[C@@H]1c1cc(O)c(O)c(O)c1)c1cc(O)c(O)c(O)c1` [EPIGALOCATECHIN GALLATE], the IC50 [6] was 4 µM and the IC50 [7] was 4 µM.
